US11034695B2, “Dopamine-β-hydroxylase inhibitors” (BIAL—PORTELA & Ca, S.A., priority 2016, dated 2021)
Like-named read-outs stand apart in the source and are kept apart here.

Target: T1, Dopamine beta hydroxylase activity in human plasma (Homo sapiens, UniProt P09172)
T1 construct: 125 μl of plasma (or saline for blank reaction or standard curve); tissue Instituto Português do Sangue Transplantação; host or cells: human plasma from healthy donors
T1 sequence (P09172 40-617 limits assumed): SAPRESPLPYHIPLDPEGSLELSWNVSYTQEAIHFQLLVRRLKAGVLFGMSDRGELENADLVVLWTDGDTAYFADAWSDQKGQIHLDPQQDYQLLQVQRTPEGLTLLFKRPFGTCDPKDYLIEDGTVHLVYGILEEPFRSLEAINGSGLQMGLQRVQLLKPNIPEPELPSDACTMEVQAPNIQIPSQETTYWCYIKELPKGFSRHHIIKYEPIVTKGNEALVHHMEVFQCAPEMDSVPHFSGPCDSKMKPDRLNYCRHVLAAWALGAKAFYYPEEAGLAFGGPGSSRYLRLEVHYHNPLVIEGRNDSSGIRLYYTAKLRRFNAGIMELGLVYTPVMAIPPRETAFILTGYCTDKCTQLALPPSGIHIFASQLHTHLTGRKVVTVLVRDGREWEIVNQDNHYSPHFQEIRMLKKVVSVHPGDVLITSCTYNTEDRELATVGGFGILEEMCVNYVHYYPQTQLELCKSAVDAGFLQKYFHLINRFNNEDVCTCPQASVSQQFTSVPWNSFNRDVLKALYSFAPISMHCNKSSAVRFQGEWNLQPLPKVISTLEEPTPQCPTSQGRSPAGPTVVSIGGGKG
Test: DβH activity in human plasma
Format: biochemical
Details: read-out: DβH activity in % of Ctrl (0.1 μM), human plasma assay
Description: Furthermore, the ability of a compound to inhibit DβH activity may be assessed in human plasma using the following assay. […]. Dopamine beta hydroxylase activity in human plasma was measured by the method previously developed (Nagatsu, T. and Udenfriend, S. Photometric assay of dopamine-β-hydroxylase activity in human blood. Clin. Chem. 18(9) 980-983, 1972) with minor modifications. Catalase, N-ethylmaleimide, tyramine, disodium fumarate, pargyline, sodium acetate, ascorbic acid, copper sulfate and octopamine were obtained from Sigma Chemical Co., St. Louis, Mo. 63178. Human plasma samples were obtained from healthy donors (Instituto Português do Sangue Transplantação, Centro Sangue Transplantação, Porto, Portugal). From date of collection, plasma was stored at −80° C. until use. Test compounds were initially prepared in dimethyl sulfoxide at a concentration of 10 mM and diluted in dimethyl sulfoxide to the required concentrations. Test compounds were further diluted in ultrapure water to a concentration 20-fold to that of the final concentration to be tested. Final concentrations of test compounds were 10, 100 and 1000 nM. The various reagents used to make up the incubation buffer were premixed and consisted of the following components: sodium acetate buffer (1 M, pH 5.0, 18 ml), sodium fumarate (0.2 M, 4.5 ml), ascorbic acid (0.2 M, 4.5 ml, freshly prepared), pargyline (20 mM, freshly prepared, 4.5 ml), N-ethylmaleimide (0.2 M, 4.5 ml), catalase (10 000 U/ml, 9 ml), copper sulfate (20 μM, 4.5 ml) and 4.5 ultrapure water. The standard incubation mixture (total volume, 950 μl) contained: 50 μL of compound or vehicle (dimethyl sulfoxide 2%); 700 μL of incubation buffer; 125 μl of plasma (or saline for blank reaction or standard curve); 75 μl of saline. The reaction mixture was placed in water bath, shaking at 37° C. and pre-incubated for 10 minutes. Tyramine (0.5 M) was added and incubation proceeded for 45 minutes. The reaction contents were exposed to air. A sample of enzyme preparation (with 125 μl of plasma) that had been added perchloric acid 2 M at the end of the pre-incubation period was used as blank. A blank for each of the tested compounds was used. For octopamine standard curve, perchloric acid 2 M was replaced by increasing concentrations of octopamine prepared in perchloric acid 2 M (0.5, 1, 2.5, 5, 7.5, 10, 15, 20 μg/ml, final concentration). The incubation was stopped by adding 200 μl of 2 M molar perchloric acid, and the mixture was centrifuged at 9000 g for 5 min. The supernatant fluid (800 μL) was transferred to a column (SPE cartridge ISOLUTE SCX-3, 100 mg) and centrifuged at 150 g for 2 min. The column was washed two more times with 0.5 ml of ultrapure water by centrifuging at 150 g for 2 min. The adsorbed octopamine was eluted twice with 0.3 ml of 4 M ammonium hydroxide by centrifuging at 150 g for 2 min. Octopamine in the eluate was then converted to p-hydroxybenzaldehyde by adding 200 μl of sodium periodate (2%) and incubating for 6 min. Excess periodate was than reduced by adding 200 μl of sodium metabisulfite (10%). Absorbance was measured at […] in a 96-well plate by use of a SpectraMAX plus 384 (Molecular Devices) with software SOFTmax® PRO Software 5.3 spectrophotometer. Absorbance was linear with octopamine concentration from 0.5 to 20 μg/ml. Dopamine beta hydroxylase activity is determined as nmol of octopamine formed/ml of plasma/hour and effect of compounds is presented as % control.
Results are reported in the table below (inside brackets) as activity in % of control at the inhibitor concentration tested.

[1] = 0.1 μM inhibitor, human plasma, numbers in brackets

Structure (SMILES) | remaining activity at 0.1 µM [1] [%] | remaining activity at 0.1 µM [%]
Cc1[nH]c(=S)n2c1C[C@H](c1c(F)c(F)cc(F)c1F)C2 [Example 5, (R)-1-methyl-6-(2,3,5,6-tetrafluorophenyl)-2,5,6,7-tetrahydro-3H-pyrrolo[1,2-c]-imidazole-3-thione] | 57.3 | 
Cc1[nH]c(=S)n2c1C[C@@H](c1c(F)c(F)cc(F)c1F)C2 [Example 6, (S)-1-methyl-6-(2,3,5,6-tetrafluorophenyl)-2,5,6,7-tetrahydro-3H-pyrrolo[1,2-c]imidazole-3-thione] | 74.1 | 
Cc1[nH]c(=S)n2c1[C@@H]1C[C@]1(c1cc(Cl)ccc1F)C2 [Example 8, (5aS,6aR)-5a-(5-chloro-2-fluorophenyl)-1-methyl-5,5a,6,6a-tetrahydrocyclopropa[3,4]pyrrolo[1,2-c]imidazole-3(2H)-thione] | 38.3 | 
Cc1[nH]c(=S)n2c1[C@@H]1C[C@]1(c1cc(Br)ccc1F)C2 [Example 13, (5aS,6aR)-5a-(5-bromo-2-fluorophenyl)-1-methyl-5,5a,6,6a-tetrahydrocyclopropa[3,4]pyrrolo[1,2-c]imidazole-3(2H)-thione] |  | 9.8
Cc1[nH]c(=S)n2c1[C@@H]1C[C@]1(c1c(F)ccc(Cl)c1F)C2 [Example 14, (5aS,6aR)-5a-(3-chloro-2,6-difluorophenyl)-1-methyl-5,5a,6,6a-tetrahydrocyclopropa[3,4]pyrrolo[1,2-c]imidazole-3(2H)-thione] | 4.7 | 
Cc1[nH]c(=S)n2c1C[C@H](c1c(F)ccc(Br)c1F)C2 [Example 15, (R)-6-(3-bromo-2,6-difluorophenyl)-1-methyl-2,5,6,7-tetrahydro-3H-pyrrolo[1,2-c]imidazole-3-thione] | 23.8 | 
Cc1[nH]c(=S)n2c1C[C@@H](c1c(F)ccc(Br)c1F)C2 [Example 16, (S)-6-(3-bromo-2,6-difluorophenyl)-1-methyl-2,5,6,7-tetrahydro-3H-pyrrolo[1,2-c]imidazole-3-thione] | 12.1 | 
Cc1[nH]c(=S)n2c1[C@@H]1C[C@]1(c1cc(F)cc(Cl)c1)C2 [Example 17, (5aS,6aR)-5a-(3-chloro-5-fluorophenyl)-1-methyl-5,5a,6,6a-tetrahydrocyclopropa[3,4]pyrrolo[1,2-c]imidazole-3(2H)-thione] | 49.9 | 
[2H]C([2H])([2H])c1[nH]c(=S)n2c1[C@@H]1C[C@]1(c1cc(Br)ccc1F)C2 [Example 18, (5aS,6aR)-5a-(5-bromo-2-fluorophenyl)-1-(methyl-d3)-5,5a,6,6a-tetrahydrocyclopropa[3,4]pyrrolo[1,2-c]imidazole-3(2H)-thione] | 10 | 
Cc1[nH]c(=S)n2c1C[C@@H](c1cc(Br)ccc1F)C2 [Example 19, (S)-6-(5-bromo-2-fluorophenyl)-1-methyl-2,5,6,7-tetrahydro-3H-pyrrolo[1,2-c]imidazole-3-thione] | 39.1 | 
Cc1[nH]c(=S)n2c1C[C@H](c1c(F)ccc(F)c1F)C2 [Example 20, (R)-1-methyl-6-(2,3,6-trifluorophenyl)-6,7-dihydro-2H-pyrrolo[1,2-c]imidazole-3(5H)-thione] | 27.7 | 
Cc1[nH]c(=S)n2c1C[C@H](c1cc(Br)ccc1F)C2 [Example 21, (R)-6-(5-bromo-2-fluorophenyl)-1-methyl-2,5,6,7-tetrahydro-3H-pyrrolo[1,2-c]imidazole-3-thione] | 88.8 | 
Cc1[nH]c(=S)n2c1C[C@H](c1c(F)cccc1F)C2 [Example 22, (R)-6-(2,6-difluorophenyl)-1-methyl-2,5,6,7-tetrahydro-3H-pyrrolo[1,2-c]imidazole-3-thione] | 0.5 | 
Cc1[nH]c(=S)n2c1C[C@@H](c1cc(Cl)ccc1F)C2 [Example 23, (S)-6-(5-chloro-2-fluorophenyl)-1-methyl-2,5,6,7-tetrahydro-3H-pyrrolo[1,2-c]imidazole-3-thione] | 67 | 
